Results published in PMC4494927, “Discovery of a small molecule targeting SET-PP2A interaction to overcome BCR-ABLT315I mutation of chronic myeloid leukemia” (Oncotarget, 2015).

Assays:
Test in all cases: In vitro kinase assay (Kinase-Glo / ADP-Glo)
Format in all cases: biochemical
[1] = target: HER2 (Homo sapiens, UniProt P04626); details: TGI1002 1 µM; means of two independent experiments; read-out: Inhibitory effect (%)
Method: (§1) All kinase reactions were carried out in 384-well plates. After addition of the compounds, kinase and ATP-substrate were added to the assay plates successively, the assay plates were centrifuged at 1,000 x g for 1 min and incubated for 1 h at 30 °C. Then, Kinase-Glo Plus or ADP-Glo reagent was added to each well. In Kinase-Glo assay, after addition of the reagent for 20 min, the luminescence was measured on an EnVision Multilabel Plate Reader (Perkin-Elmer). In ADP-Glo assay, after addition of the reagent for 40 min, Kinase Detection Reagent was added and incubated for another 30 min at 27 °C, and then the luminescence was measured. Kinase inhibition rates were calculated per manufacturer's instructions.

[2] = target: CDK4/CyclinD1 (Homo sapiens, UniProt P11802); details: TGI1002 1 µM; means of two independent experiments; read-out: Inhibitory effect (%)
Method: as §1

[3] = target: p38β (Homo sapiens, UniProt Q15759); details: TGI1002 1 µM; means of two independent experiments; read-out: Inhibitory effect (%)
Method: as §1

[4] = target: BRAF (Homo sapiens, UniProt P15056); details: TGI1002 1 µM; means of two independent experiments; read-out: Inhibitory effect (%)
Method: as §1

[5] = target: AXL (Homo sapiens, UniProt P30530); details: TGI1002 1 µM; means of two independent experiments; read-out: Inhibitory effect (%)
Method: as §1

[6] = target: AKT2 (Homo sapiens, UniProt P31751); details: TGI1002 1 µM; means of two independent experiments; read-out: Inhibitory effect (%)
Method: as §1

[7] = target: RET (Homo sapiens, UniProt P07949); details: TGI1002 1 µM; means of two independent experiments; read-out: Inhibitory effect (%)
Method: as §1

[8] = target: EphA1 (Homo sapiens, UniProt P21709); details: TGI1002 1 µM; means of two independent experiments; read-out: Inhibitory effect (%)
Method: as §1

[9] = target: ABL1 (Homo sapiens, UniProt P00519); details: TGI1002 1 µM; means of two independent experiments; read-out: Inhibitory effect (%)
Method: as §1

[10] = target: AKT1 (Homo sapiens, UniProt P31749); details: TGI1002 1 µM; means of two independent experiments; read-out: Inhibitory effect (%)
Method: as §1

[11] = target: BLK (Homo sapiens, UniProt P51451); details: TGI1002 1 µM; means of two independent experiments; read-out: Inhibitory effect (%)
Method: as §1

[12] = target: PKCξ (Homo sapiens, UniProt Q05513); details: TGI1002 1 µM; means of two independent experiments; read-out: Inhibitory effect (%)
Method: as §1

[13] = target: KDR (Homo sapiens, UniProt P35968); details: TGI1002 1 µM; means of two independent experiments; read-out: Inhibitory effect (%)
Method: as §1

[14] = target: PKCγ (Homo sapiens, UniProt P05129); details: TGI1002 1 µM; means of two independent experiments; read-out: Inhibitory effect (%)
Method: as §1

[15] = target: PLK2 (Homo sapiens, UniProt Q9NYY3); details: TGI1002 1 µM; means of two independent experiments; read-out: Inhibitory effect (%)
Method: as §1

[16] = target: PKAcr (Homo sapiens, UniProt P22612); details: TGI1002 1 µM; means of two independent experiments; read-out: Inhibitory effect (%)
Method: as §1

[17] = target: JNK1 (Homo sapiens, UniProt P45983); details: TGI1002 1 µM; means of two independent experiments; read-out: Inhibitory effect (%)
Method: as §1

[18] = target: CHK1 (Homo sapiens, UniProt O14757); details: TGI1002 1 µM; means of two independent experiments; read-out: Inhibitory effect (%)
Method: as §1

[19] = target: TrkB (Homo sapiens, UniProt Q16620); details: TGI1002 1 µM; means of two independent experiments; read-out: Inhibitory effect (%)
Method: as §1

[20] = target: GSK3β (Homo sapiens, UniProt P49841); details: TGI1002 1 µM; means of two independent experiments; read-out: Inhibitory effect (%)
Method: as §1

[21] = target: Aurora B (Homo sapiens, UniProt Q96GD4); details: TGI1002 1 µM; means of two independent experiments; read-out: Inhibitory effect (%)
Method: as §1

[22] = target: AMPK (A2/B1/G1) (Homo sapiens, UniProt P54646); details: TGI1002 1 µM; means of two independent experiments; read-out: Inhibitory effect (%)
Method: as §1

[23] = target: PKAcα (Homo sapiens, UniProt P17612); details: TGI1002 1 µM; means of two independent experiments; read-out: Inhibitory effect (%)
Method: as §1

[24] = target: InsR (Homo sapiens, UniProt P06213); details: TGI1002 1 µM; means of two independent experiments; read-out: Inhibitory effect (%)
Method: as §1

[25] = target: TrkA (Homo sapiens, UniProt P04629); details: TGI1002 1 µM; means of two independent experiments; read-out: Inhibitory effect (%)
Method: as §1

[26] = target: AKT3 (Homo sapiens, UniProt Q9Y243); details: TGI1002 1 µM; means of two independent experiments; read-out: Inhibitory effect (%)
Method: as §1

[27] = target: CDK1/CyclinB (Homo sapiens, UniProt P06493); details: TGI1002 1 µM; means of two independent experiments; read-out: Inhibitory effect (%)
Method: as §1

[28] = target: FGR (Homo sapiens, UniProt P09769); details: TGI1002 1 µM; means of two independent experiments; read-out: Inhibitory effect (%)
Method: as §1

[29] = target: PI3Kδ (Homo sapiens, UniProt O00329); details: TGI1002 1 µM; means of two independent experiments; read-out: Inhibitory effect (%)
Method: as §1

[30] = target: PKAcβ (Homo sapiens, UniProt P22694); details: TGI1002 1 µM; means of two independent experiments; read-out: Inhibitory effect (%)
Method: as §1

[31] = target: ERK2(MAPK1) (Homo sapiens, UniProt P28482); details: TGI1002 1 µM; means of two independent experiments; read-out: Inhibitory effect (%)
Method: as §1

[32] = target: ABL2 (Homo sapiens, UniProt P42684); details: TGI1002 1 µM; means of two independent experiments; read-out: Inhibitory effect (%)
Method: as §1

[33] = target: CAMK1 (Homo sapiens, UniProt Q14012); details: TGI1002 1 µM; means of two independent experiments; read-out: Inhibitory effect (%)
Method: as §1

[34] = target: NEK2 (Homo sapiens, UniProt P51955); details: TGI1002 1 µM; means of two independent experiments; read-out: Inhibitory effect (%)
Method: as §1

[35] = target: LCK (Homo sapiens, UniProt P06239); details: TGI1002 1 µM; means of two independent experiments; read-out: Inhibitory effect (%)
Method: as §1

[36] = target: PKCα (Homo sapiens, UniProt P17252); details: TGI1002 1 µM; means of two independent experiments; read-out: Inhibitory effect (%)
Method: as §1

[37] = target: FLT1(VEGFR1) (Homo sapiens, UniProt P17948); details: TGI1002 1 µM; means of two independent experiments; read-out: Inhibitory effect (%)
Method: as §1

[38] = target: EGFR(T790M,L858R) (Homo sapiens, UniProt P00533, L858R/T790M); details: TGI1002 1 µM; means of two independent experiments; read-out: Inhibitory effect (%)
Method: as §1

[39] = target: PDGFRα (Homo sapiens, UniProt P16234)
Method: as §1

[40] = target: EGFR (Homo sapiens, UniProt P00533); details: TGI1002 1 µM; means of two independent experiments; read-out: Inhibitory effect (%)
Method: as §1

PDGFRα, sequence (P16234 24-1089, species assumed): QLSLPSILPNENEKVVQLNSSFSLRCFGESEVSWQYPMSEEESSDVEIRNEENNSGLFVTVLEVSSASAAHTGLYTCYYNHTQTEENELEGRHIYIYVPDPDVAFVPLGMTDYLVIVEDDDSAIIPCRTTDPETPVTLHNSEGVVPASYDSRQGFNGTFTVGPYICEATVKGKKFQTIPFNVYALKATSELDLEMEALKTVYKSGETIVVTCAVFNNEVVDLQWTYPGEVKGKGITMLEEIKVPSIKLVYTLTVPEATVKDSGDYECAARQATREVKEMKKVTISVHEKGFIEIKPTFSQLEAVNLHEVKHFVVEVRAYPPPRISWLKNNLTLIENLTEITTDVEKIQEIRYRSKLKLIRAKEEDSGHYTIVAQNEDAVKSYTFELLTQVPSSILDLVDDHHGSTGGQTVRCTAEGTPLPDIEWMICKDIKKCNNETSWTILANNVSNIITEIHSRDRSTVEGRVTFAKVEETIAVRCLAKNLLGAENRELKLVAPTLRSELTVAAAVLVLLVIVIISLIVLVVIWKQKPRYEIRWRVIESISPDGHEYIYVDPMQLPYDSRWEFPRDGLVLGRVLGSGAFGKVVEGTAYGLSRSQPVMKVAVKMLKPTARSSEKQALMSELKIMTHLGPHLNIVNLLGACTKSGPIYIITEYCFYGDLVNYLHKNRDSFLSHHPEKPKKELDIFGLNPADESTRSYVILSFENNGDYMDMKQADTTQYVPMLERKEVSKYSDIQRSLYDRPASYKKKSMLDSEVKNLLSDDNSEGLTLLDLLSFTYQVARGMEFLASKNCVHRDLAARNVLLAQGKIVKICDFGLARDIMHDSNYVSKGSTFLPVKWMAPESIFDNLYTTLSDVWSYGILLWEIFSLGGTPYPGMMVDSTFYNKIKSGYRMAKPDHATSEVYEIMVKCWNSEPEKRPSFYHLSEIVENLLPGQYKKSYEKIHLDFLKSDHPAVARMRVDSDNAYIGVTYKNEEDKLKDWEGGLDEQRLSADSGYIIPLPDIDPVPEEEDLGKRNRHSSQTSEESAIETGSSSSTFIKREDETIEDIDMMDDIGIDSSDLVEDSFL
GSK3β, sequence (P49841 whole entry): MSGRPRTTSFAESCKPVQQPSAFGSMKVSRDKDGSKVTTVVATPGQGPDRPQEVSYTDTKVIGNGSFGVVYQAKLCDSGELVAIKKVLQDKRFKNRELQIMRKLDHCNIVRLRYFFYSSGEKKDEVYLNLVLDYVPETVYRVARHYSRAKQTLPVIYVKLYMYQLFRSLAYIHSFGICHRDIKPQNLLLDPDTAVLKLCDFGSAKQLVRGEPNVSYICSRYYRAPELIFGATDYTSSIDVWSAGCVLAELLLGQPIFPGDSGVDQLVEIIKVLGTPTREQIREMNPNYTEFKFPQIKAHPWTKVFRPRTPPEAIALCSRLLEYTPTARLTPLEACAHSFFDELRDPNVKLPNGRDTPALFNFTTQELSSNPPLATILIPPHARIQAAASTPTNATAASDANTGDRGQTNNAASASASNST
CDK1/CyclinB, sequence (P06493 whole entry): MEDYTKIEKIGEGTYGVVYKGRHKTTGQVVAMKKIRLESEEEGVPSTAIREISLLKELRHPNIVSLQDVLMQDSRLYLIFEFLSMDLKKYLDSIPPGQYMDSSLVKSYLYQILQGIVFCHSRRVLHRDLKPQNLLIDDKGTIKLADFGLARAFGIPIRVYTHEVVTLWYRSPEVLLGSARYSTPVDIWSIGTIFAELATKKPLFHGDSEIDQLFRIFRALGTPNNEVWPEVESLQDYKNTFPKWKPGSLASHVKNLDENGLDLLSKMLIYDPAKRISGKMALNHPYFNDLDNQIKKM
CDK1/CyclinB, sequence (P14635 whole entry partner): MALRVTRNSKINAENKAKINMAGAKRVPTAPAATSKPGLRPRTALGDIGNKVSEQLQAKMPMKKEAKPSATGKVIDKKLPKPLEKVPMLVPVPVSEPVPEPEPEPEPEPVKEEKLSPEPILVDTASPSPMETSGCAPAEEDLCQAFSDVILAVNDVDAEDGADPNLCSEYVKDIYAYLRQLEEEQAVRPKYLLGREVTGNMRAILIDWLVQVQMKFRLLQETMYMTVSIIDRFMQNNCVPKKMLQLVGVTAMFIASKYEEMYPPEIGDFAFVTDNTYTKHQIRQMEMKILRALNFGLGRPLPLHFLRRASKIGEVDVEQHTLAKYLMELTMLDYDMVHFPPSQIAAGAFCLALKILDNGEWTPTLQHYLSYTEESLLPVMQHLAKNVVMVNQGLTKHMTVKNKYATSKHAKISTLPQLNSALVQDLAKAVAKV
FLT1(VEGFR1), sequence (P17948 27-1338): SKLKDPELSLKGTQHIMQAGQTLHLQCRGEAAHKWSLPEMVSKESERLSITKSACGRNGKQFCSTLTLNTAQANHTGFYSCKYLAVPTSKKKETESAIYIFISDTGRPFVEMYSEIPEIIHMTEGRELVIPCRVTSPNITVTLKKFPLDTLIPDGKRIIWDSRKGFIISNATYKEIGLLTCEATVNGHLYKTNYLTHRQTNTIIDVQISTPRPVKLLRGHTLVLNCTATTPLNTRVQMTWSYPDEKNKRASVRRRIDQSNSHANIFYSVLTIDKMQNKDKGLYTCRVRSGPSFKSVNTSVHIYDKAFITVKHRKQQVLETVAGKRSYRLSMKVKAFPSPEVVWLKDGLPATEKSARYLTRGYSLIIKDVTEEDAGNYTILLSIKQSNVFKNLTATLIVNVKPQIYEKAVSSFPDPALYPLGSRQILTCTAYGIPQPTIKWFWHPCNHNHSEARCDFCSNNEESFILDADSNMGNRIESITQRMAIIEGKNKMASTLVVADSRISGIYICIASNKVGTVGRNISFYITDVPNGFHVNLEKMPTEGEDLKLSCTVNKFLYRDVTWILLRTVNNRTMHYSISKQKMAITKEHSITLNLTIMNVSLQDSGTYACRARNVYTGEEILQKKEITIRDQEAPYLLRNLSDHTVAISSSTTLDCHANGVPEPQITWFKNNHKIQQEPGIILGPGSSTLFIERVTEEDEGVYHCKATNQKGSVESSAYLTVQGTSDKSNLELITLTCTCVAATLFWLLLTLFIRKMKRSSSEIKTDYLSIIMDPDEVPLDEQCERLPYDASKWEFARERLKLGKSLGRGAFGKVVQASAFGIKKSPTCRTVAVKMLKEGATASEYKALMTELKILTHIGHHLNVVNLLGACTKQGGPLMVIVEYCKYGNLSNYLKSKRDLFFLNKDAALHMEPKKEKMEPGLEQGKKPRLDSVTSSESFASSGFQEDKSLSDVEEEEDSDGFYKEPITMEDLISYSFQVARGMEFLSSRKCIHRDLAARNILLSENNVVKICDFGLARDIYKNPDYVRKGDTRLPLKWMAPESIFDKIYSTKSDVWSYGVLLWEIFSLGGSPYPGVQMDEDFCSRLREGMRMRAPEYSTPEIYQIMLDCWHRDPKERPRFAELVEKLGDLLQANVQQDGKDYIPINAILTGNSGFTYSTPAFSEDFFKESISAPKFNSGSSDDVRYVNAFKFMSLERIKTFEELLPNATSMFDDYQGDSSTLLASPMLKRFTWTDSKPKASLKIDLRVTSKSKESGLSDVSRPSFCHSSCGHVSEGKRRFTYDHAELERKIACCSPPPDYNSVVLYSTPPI
p38β, sequence (Q15759 whole entry): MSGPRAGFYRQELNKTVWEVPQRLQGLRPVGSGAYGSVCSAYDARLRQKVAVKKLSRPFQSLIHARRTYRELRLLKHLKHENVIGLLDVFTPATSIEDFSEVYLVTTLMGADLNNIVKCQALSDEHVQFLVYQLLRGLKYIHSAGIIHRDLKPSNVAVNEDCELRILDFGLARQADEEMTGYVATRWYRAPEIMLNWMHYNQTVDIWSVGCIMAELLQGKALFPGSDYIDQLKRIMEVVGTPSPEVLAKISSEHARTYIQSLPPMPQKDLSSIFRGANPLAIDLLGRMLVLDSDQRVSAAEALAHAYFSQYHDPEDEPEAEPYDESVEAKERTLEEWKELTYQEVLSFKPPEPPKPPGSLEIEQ
AXL, sequence (P30530 26-894): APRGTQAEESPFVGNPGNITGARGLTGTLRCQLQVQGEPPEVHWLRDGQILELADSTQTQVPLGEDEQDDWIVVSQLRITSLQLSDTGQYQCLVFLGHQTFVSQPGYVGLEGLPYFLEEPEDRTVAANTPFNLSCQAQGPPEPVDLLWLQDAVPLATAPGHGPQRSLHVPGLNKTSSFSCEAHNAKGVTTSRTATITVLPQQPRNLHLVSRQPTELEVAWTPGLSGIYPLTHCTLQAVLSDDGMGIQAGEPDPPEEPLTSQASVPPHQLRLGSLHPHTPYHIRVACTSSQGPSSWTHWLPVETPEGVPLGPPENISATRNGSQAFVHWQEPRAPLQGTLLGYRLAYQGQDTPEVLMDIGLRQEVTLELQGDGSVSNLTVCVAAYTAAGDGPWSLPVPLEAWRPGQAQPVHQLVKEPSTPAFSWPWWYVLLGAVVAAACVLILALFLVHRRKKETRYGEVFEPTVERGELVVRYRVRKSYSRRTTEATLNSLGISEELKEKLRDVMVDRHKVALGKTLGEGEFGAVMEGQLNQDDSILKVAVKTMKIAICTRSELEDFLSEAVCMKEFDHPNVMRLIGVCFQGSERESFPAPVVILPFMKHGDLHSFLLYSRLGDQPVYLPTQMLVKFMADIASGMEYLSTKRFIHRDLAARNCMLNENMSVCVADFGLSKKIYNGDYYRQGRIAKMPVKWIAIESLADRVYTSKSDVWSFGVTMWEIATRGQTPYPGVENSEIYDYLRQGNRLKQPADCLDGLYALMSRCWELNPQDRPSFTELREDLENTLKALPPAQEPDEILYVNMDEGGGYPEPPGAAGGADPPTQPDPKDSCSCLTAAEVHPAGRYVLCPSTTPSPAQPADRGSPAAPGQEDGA

SMILES: Cc1ccc(NC(=O)c2cccc(CN3CCN(C)CC3)c2)cc1Oc1nccc(-c2cccnc2)n1.Cl [TGI1002, N-(4-methyl-3-((4-(pyridin-3-yl)-pyrimidin-2-yl)oxy)phenyl)-3-((4-methylpiperazin-1-yl)methyl)benzamide hydrochloride]
- inhibition at 1 µM [1]: 7.88%
- inhibition at 1 µM [2]: 7.54%
- inhibition at 1 µM [3]: 0.2%
- inhibition at 1 µM [4]: 2.3%
- inhibition at 1 µM [5]: 3.03%
- inhibition at 1 µM [6]: 4.72%
- inhibition at 1 µM [7]: 12.2%
- inhibition at 1 µM [8]: 1.58%
- inhibition at 1 µM [9]: 4.3%
- inhibition at 1 µM [10]: 5.07%
- inhibition at 1 µM [11]: 3.39%
- inhibition at 1 µM [12]: 13.3%
- inhibition at 1 µM [13]: 0.64%
- inhibition at 1 µM [14]: 0.79%
- inhibition at 1 µM [15]: 3.52%
- inhibition at 1 µM [16]: 1.45%
- inhibition at 1 µM [17]: 0.2%
- inhibition at 1 µM [18]: 3.61%
- inhibition at 1 µM [19]: 5.58%
- inhibition at 1 µM [20]: 2.59%
- inhibition at 1 µM [21]: 0%
- inhibition at 1 µM [22]: 2.57%
- inhibition at 1 µM [23]: 5.96%
- inhibition at 1 µM [24]: 3.7%
- inhibition at 1 µM [25]: 3.11%
- inhibition at 1 µM [26]: 3.62%
- inhibition at 1 µM [27]: 3.24%
- inhibition at 1 µM [28]: 7.53%
- inhibition at 1 µM [29]: 0.71%
- inhibition at 1 µM [30]: 6.5%
- inhibition at 1 µM [31]: 0%
- inhibition at 1 µM [32]: 19.2%
- inhibition at 1 µM [33]: 4.93%
- inhibition at 1 µM [34]: 1.56%
- inhibition at 1 µM [35]: 5.82%
- inhibition at 1 µM [36]: 5.57%
- inhibition at 1 µM [37]: 1.97%
- inhibition at 1 µM [38]: 8.74%
- IC50 ([39]; PDGFRα kinase activity): 3.28 µM
- inhibition at 1 µM ([39]; TGI1002 1 µM, means of two independent experiments, read-out: Inhibitory effect (%)): 43.5%
- inhibition at 1 µM [40]: 0%
